Key:
[1] = target: T1, histamine H1-receptor (guinea pig ileum) (Cavia porcellus, UniProt P31389); assay: in vitro guinea pig ileum test (histamine H1-antagonist activity); type: cell-based; details: isolated guinea pig ileum, magnesium free Tyrode solution, 30° C., 8 min contact, histamine as agonist; read-out: pA2 ileum (converted)
T1 construct: an isolated portion of the guinea pig ileum is secured under tension; from tissue; host or cells: isolated guinea pig ileum
Procedure: In this test an isolated portion of the guinea pig ileum is secured under tension (500 mg) between an anchorage and a transducer in a 10 ml tissue bath and immersed in magnesium free Tyrode solution with constant aeration at a temperature of 30° C. The output from the transducer is amplified. The amplified output is in turn fed to a flat bed recorder. Measured amounts of histamine are added to the tissue bath so that the histamine concentration increases step-wise until the force of the contraction reaches a maximum. The tissue bath is washed out and filled with fresh magnesium free Tyrode solution containing compound under test. The solution is left in contact with the tissue for 8 min. and measured amounts of histamine are added again until a maximum contraction is recorded. The assay is repeated with increasing concentrations of test compound and the dose of histamine giving 50% of maximum contraction is noted. A dose ratio (DR) was calculated by comparing the concentrations of histamine required to produce 50% maximum response in the absence and in the presence of the antagonist. A plot of Log DR-1 against Log D (the concentration of compound under test) is made and the point of intersection with the Log (DR-1) ordinate is taken as the measure of the activity (pA2 value).

histamine H1-receptor = assay: in vivo inhibition of histamine induced bronchoconstriction in anaesthetised guinea pigs; details: intravenous antagonist dose giving DR-1 = 10, histamine dose-response 5 minutes after antagonist
Procedure: Guinea pigs of either sex are anaesthetised by intraperitoneal injection of sodium pentobarbitone, 90 mg/kg. The trachea is cannulated. The animal is respired artificially with a fixed volume of air just adequate to inflate the lungs. The pressure needed to inflate the lungs is monitored from the respiratory system using a pressure transducer. Intravenous injection of histamine causes dose-dependent increases in the pressure to inflate the lungs reflecting the bronchoconstrictor action of histamine. Responses to histamine can be antagonised using histamine H1 -receptor antagonists.
Dose-response curves to histamine are established at 20, 40, 80, 160 and 320 nmols/kg. Antagonists are then administered by intravenous injection and 5 minutes later a new histamine dose-response curve is established increasing the doses of histamine as necessary. The effect of the antagonist can be quantified by the displacement, to the right, of the histamine dose-response curve, expressed as a dose-ratio. A series of doses of antagonists may be given to each animal allowing calculation of dose-ratios for each dose of antagonist.

T1 sequence (P31389 whole entry): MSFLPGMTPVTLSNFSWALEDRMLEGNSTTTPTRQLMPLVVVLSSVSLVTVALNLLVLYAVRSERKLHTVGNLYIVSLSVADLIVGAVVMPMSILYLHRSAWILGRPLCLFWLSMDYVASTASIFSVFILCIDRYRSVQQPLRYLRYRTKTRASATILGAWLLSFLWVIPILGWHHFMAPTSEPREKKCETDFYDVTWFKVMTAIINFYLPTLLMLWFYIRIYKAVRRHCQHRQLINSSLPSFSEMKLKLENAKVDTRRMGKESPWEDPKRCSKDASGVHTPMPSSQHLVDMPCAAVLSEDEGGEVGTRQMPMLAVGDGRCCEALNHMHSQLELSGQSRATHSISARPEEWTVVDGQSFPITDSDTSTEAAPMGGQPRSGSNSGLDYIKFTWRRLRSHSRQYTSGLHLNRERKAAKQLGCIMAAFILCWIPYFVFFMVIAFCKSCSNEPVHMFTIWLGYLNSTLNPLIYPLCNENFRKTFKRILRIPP

SMILES	Kb [1]	Guinea Pig bronchoconstriction DR-1 = 10 (histamine H1-receptor)
Cc1cc(Br)cnc1CCCCNc1ncc(Cc2cccnc2)cc1O [1(h), 2-[4-(5-Bromo-3-methylpyrid-2-yl)butylamino]-3-hydroxy-5-(pyrid-3-ylmethyl)pyridine]	1.95 nM	0.016 μm/kg
Cc1cc(Br)cnc1CCCCNc1ncc(Cc2cccnc2)cc1OP(=O)(O)O [1(i), 2-[4-(5-Bromo-3-methylpyrid-2-yl)butylamino]-5-(pyrid-3-ylmethyl)pyrid-3-yloxyphosphate]	8.13 nM	0.033 μm/kg
Oc1cc(Cc2cccnc2)cnc1NCCCC1CCCc2cccnc21 (stereo not shown) [2(e), 2-[3-(5,6,7,8-Tetrahydroquinol-8-yl)propylamino]-3-hydroxy-5-(pyrid-3-ylmethyl)pyridine]	9.55 nM	0.038 μm/kg
Cc1cc(Br)cnc1CCCNc1ncc(Cc2cccnc2)cc1O [3(h), 2-[3-(5-Bromo-3-methylpyrid-2-yl)-propylamino]-3-hydroxy-5-(pyrid-3-ylmethyl)pyridine]	1.51 nM	
